In patent publication US5278300A, “4,6-o-hydroxyphosphoryl-glucosamine derivatives” (priority 1990, dated 1994):
Read-outs that look alike come from different tables or passages of the source.

Columns and labels:
[1] = Lethal toxicity in galactosamine-sensitized mice; type: in vivo, C57BL mice; settings: galactosamine-sensitized mice; intravenous; D-galactosamine/HCl 10 mg/mouse intraperitoneally; observed to seventh day; read-out: LD50 (galactosamine load)
Description: (§1) Lethal toxicity in galactosamine-sensitized mice was evaluated by utilizing the following experimental system [see J. Biochem., 98, 395-406. (1985)].
(§2) To C57BL mice (male, 7-weeks old), 10 mg/mouse of D-galactosamine/HCl was intraperitoneally administered. Immediately after that, the compound of this invention was intravenously administered. After these administrations, the general condition of the mice were observed every one hour for seven hours, and every day from the following day to the seventh day.

[2] = test system: spleen cells; experiment: Mitogen activity (3H-thymidine incorporation in spleen cells); type: cell-based, C3H/HeN mice; settings: 48 hours culture, given concentration
Description: The mitogen activity of the compounds according to the present invention was evaluated by utilizing the following experimental system [see Eur. J. Immunol., 14, 109-114. (1984)].
The spleens of C3H/HeN mice (males, 6-10-weeks old) were isolated in an aseptic manner. The spleen tissue was loosened in Dulbecco's modified Eagle medium (DMEM) and then subjected to a stainless mesh in order to filter the spleen cells. Next, erythrocytes contained in the collected cells were hemolyzed, and the obtained cells were suspended in RPMI 1640 medium containing 5% FBS for subsequent use.
Evaluation of mitogenic activity of the compounds according to the present invention was conducted by measuring the amount of ^3 H-thymidine incorporated into the cells during culturing of the cells which were treated with the compounds according to the present invention. First, the spleen cells were transferred to a 96-well plate at 5×10^5 cells/well (100 μl). To each well, the compound according to the present invention at a given concentration (100 μl) was added, and the obtained solution in each well was cultured under 5% CO2 at 37° C. for 48 hours. After that, ^3 H-thymidine was added at 1 μCi/well (50 μl), followed by culturing for four hours. The obtained cells were washed with phosphate buffered saline (PBS), and the amount of ^3 H-thymidine incorporated into the cells (the amount of radioactivity) was determined using a liquid scintillation counter. The result was shown by calculating the following Stimulation Index: [formula]

[3] = test system: colony stimulating factor (CSF); experiment: Colony stimulating factor (CSF)-inducing activity; type: in vivo, C57BL mice; settings: 5 μg caudal vein, serum after six hours, colonies after seven days
Description: By utilizing the following experimental protocol, in vivo colony stimulating factor (CSF) inducing activity of the compounds according to the present invention was evaluated [see Immunology, 21, 427-436. (1971)].
5 μg of the present compounds according to the present invention were administered to the caudal vein of C57BL mice (male, 8-10-weeks old). After six hours, the blood was sampled from the plexus venous orbitalis of said mice. This blood was allowed to stand at 4° C. for two hours for sufficient coagulation, and then centrifuged at 1500×g. The resultant supernatant solution was collected for use as a CSF-containing serum sample.
Separately, from the femora of mice which were the same series as the mice used for sampling the serum, the bone marrow cells were sampled. Specifically, both ends of the femora isolated in an aseptic manner were cut, and an injection needle was inserted into one end to aspirate the bone marrow cells into a culture solution (DMEM). The obtained cell suspension was sufficiently stirred, washed with the culture solution several times, and suspended in the culture solution again.
Next, the cell culture prepared as described was adjusted to a final concentration of 10^5 cells/ml by utilizing a medium (DMEM) containing 0.3% agar, 25% horse serum, and 50 μM 2-mercaptoethanol. To this solution, 0.1 ml of said serum sample which had been diluted to 1/3 with said DMEM medium was added, and the obtained solution was transferred to a culture plate of 35 mm diameter. Then, the resultant culture solution was cultured under 7% CO2 at 37° C. for seven days to form colonies. Colonies as containing at least 20 unseparated cells were counted, and the numbers thus obtained were taken as indicating the CSF inducing activity of the compounds according to the present invention.

[4] = test system: neutrophils; experiment: O2^- production stimulating activity in neutrophils; type: cell-based, C3H/HeN mice; settings: 10 μg/ml, 37° C., 60 minutes, FMLP 0.1 μM; for activation at 10 µg/mL: Mus musculus, Neutrophil, 1 h, read-out: Stimulation (%), O2^- production stimulating activity
Description: O2^- - production stimulating activity in neutrophils was evaluated utilizing the following experimental system [see J. Exp. Med., 160, 1656-1671. (1984)]. To the peritoneal cavity of C3H/HeN mice (male, 8-9 weeks old), physiological saline containing 0.2% (w/v) casein was administered. Three hours later, peritoneal exudate cells (90% or more of which are neutrophils) were collected. These cells (1.7×10^6 cells/ml/tube) were incubated in the presence of the compound (10 μg/ml) according to the present invention at 37° C. for 60 minutes. After addition of 80 μM of cytochrome C and 0.1 μM of formyl-methionyl-leucylphenylalanine (FMLP), the mixture was incubated in the presence of or in the absence of superoxide dismutase (SOD) at 37° C. for 10 minutes. Then, SOD-inhibitable cytochrome C reduction was estimated from the difference between the absorbances at 550 nm and 541.7 nm, and from the molar absorption coefficient (16.5×10^3).O2^- production-stimulating activity in terms of Stimulation % was calculated according to the following formula: [formula]

[5] = test system: TNF; experiment: TNF-producing activity; type: in vivo, ICR mice; settings: 10 μg/mice i.v., serum at 90 minutes, Corynebacterium parvum-primed, L929 cytotoxicity assay
Description: TNF-producing activity was evaluated utilizing the following experimental system.
The first stimulating agent, 5% Corynebacterium parvum suspension (0.2 ml physiological saline solution), was intravenously administered to ICR mice (female, 6-7 week-aged). Nine days later, the second stimulating agent, the compound of the present invention, was intravenously administered to the same mice at 10 μg/mice. In 90 minutes, 0.5-1 ml of blood was taken from the retro orbital plexus. The obtained blood was allowed to clot at room temperature for five to six hours, and centrifuged at 7200×g for five minutes to separate the serum. The obtained serum was incubated at 56° C. for 30 minutes for inactivation before use in the following experiment.
TNF activity in the serum was measured via a cytotoxicity assay employing L929 cells. […] After 48 hours incubation at 37° C., the viable cells were fixed with methanol. These cells were then stained with 0.2% crystal violet, and the dye was extracted with 1% SDS (sodium dodecyl sulphate). Next, the absorbance at 550 nm was measured. Finally, the cytotoxicity ratio (%) was calculated according to the following formula, and the reciprocal of the dilution of the serum showing 50% cytotoxicity was determined for the TNF titer in the serum (U/ml).
[OD550 (medium alone) - OD550 (serum obtained by
administering compounds of the invention)] ×

[6] = test system: galactosamine-sensitized mice; experiment: Lethal toxicity in galactosamine-sensitized mice; type: in vivo, C57BL mice; settings: intravenous; D-galactosamine/HCl 10 mg/mouse intraperitoneally; observed to seventh day; 10080 min
Description: as §1, §2

SMILES	LD50 at 168 h [1]	Stimulation Index ([2]; Experiment 1)	Stimulation Index ([2]; Experiment 2)	The Number of Colony Formed/The number of Bone Marrow Cells (10^5) ([3]; Experiment 1)	The Number of Colony Formed/The number of Bone Marrow Cells (10^5) ([3]; Experiment 2)	Stimulation (%), O2^- production stimulating activity ([4]; Experiment 2)	activation at 10 µg/mL ([4]; Experiment 1)	The Amount of TNF in the Serum ([5]; Experiment 1)	The Amount of TNF in the Serum ([5]; Experiment 2)	activation at 10 µg/mL ([4]; Experiment 2)	LD50 (galactosamine load) [6]
CCCCCCCCCCCCCC(=O)O[C@H](CCCCCCCCCCC)CC(=O)O[C@H]1[C@H](OP(=O)(O)O)[C@@H](CO)OC(O)[C@@H]1NC(=O)C[C@H](O)CCCCCCCCCCC (stereo partly drawn) [Control, 2-deoxy-2[(3R)-3-hydroxytetradecanamide]-4-O-phosphono-3-O-[(3R)-3-tetradecanoyloxytetradecanoyl]-D-glucopyranose]	0.003 mg/kg	15.8	8.4	89 Colony Formed/10^5 Bone Marrow	53 Colony Formed/10^5 Bone Marrow	60%	60%	158000 U/ml	80000 U/ml		
CCCCCCCCCCCCCC(=O)O[C@H](CCCCCCCCCCCC)C(=O)O[C@H]1[C@@H]2OP(=O)(O)OC[C@H]2OC[C@@H]1NC(=O)C[C@H](O)CCCCCCCCCCC [Example 1, 1,5-Anhydro-2-deoxy-4,6-O-hydroxyphosphoryl-2-{(3R)-3-hydroxytetradecanamido}-3-O-{(2R)-2-tetradecanoyloxytetradecanoyl}-D-glucitol]	0.0313 mg/kg	32.1		153 Colony Formed/10^5 Bone Marrow			55%	133000 U/ml			
CCCCCCCCCCCCCCC(OC(=O)CCCCCCCCCCC)C(=O)O[C@H]1[C@@H]2OP(=O)(O)OC[C@H]2OC[C@@H]1NC(=O)C[C@H](O)CCCCCCCCC (stereo partly drawn) [Example 2, 1,5-Anhydro-2-deoxy-3-O-{(2RS)-2-dodecanoyloxyhexadecanoyl}-2-{(3R)-3-hydroxydodecanamido}-4,6-O-hydroxyphosphoryl-D-glucitol]									102000 U/ml		
CCCCCCCCCCCCCCC(CCCCCCCCCCCC)C(=O)O[C@H]1[C@@H]2OP(=O)(O)OC[C@H]2OC[C@@H]1NC(=O)C[C@H](O)CCCCCCCCCCC (stereo partly drawn) [Example 4, 1,5-Anhydro-2-deoxy-3-O-{(2RS)-2-dodecylhexadecanoyl}-4,6-O-hydroxyphosphoryl-2-{(3R)-3-hydroxytetradecanamido}-D-glucitol]	0.0711 mg/kg		20.7		66 Colony Formed/10^5 Bone Marrow					55%	
CCCCCCCCCCCCCC(=O)O[C@H](CCCCCCCCCCC)CC(=O)O[C@@H]1[C@@H](NC(=O)C[C@@H](CCCCCCCCCCC)OC(=O)CCCCCCCCCCC)[C@H](OC[C@H]2O[C@H](OP(=O)(O)O)[C@H](NC(=O)C[C@H](O)CCCCCCCCCCC)[C@@H](OC(=O)C[C@H](O)CCCCCCCCCCC)[C@@H]2O)O[C@H](CO)[C@H]1OP(=O)(O)O [Lipid A]											0.0003 mg/kg
